Test results taken from the supplement of paper PMC10307832.

What was measured:
Experiment in all cases: relative viability (nuclei count vs DMSO), 5 days (fraction); higher = more cells survive
LCLC-103H = system: LCLC-103H
Summary of the method: (§1)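 Relative viability was taken as the ratio of nuclei in treated wells to nuclei in vehicle wells. Lung cancer cell lines in 1536-well plates received compounds by pin tool one day after seeding, either one drug alone or a fixed anchor-drug dose plus five library-drug doses (not always all listed) in √10 steps. Nuclei were counted on 4× images after 5 days of treatment, and values are medians of duplicate plates.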

NCI-H1944 = system: NCI-H1944
Summary of the method: as §1

LU99A = system: LU99A
Summary of the method: as §1

H3255 = system: H3255
Summary of the method: as §1

SW 1573 = system: SW 1573
Summary of the method: as §1

RERF-LC-KJ = system: RERF-LC-KJ
Summary of the method: as §1

NCI-H23 = system: NCI-H23
Summary of the method: as §1

PC-3 [JPC-3] = system: PC-3 [JPC-3]
Summary of the method: as §1

NCI-H1793 = system: NCI-H1793
Summary of the method: as §1

A-427 = system: A-427
Summary of the method: as §1

NCI-H1563 = system: NCI-H1563
Summary of the method: as §1

NCI-H460 = system: NCI-H460
Summary of the method: as §1

NCI-H2347 = system: NCI-H2347
Summary of the method: as §1

PC-14 = system: PC-14
Summary of the method: as §1

LCLC-97TM1 = system: LCLC-97TM1
Summary of the method: as §1

COR-L23 = system: COR-L23
Summary of the method: as §1

201T = system: 201T
Summary of the method: as §1

NCI-H1651 = system: NCI-H1651
Summary of the method: as §1

NCI-H650 = system: NCI-H650
Summary of the method: as §1

NCI-H727 = system: NCI-H727
Summary of the method: as §1

NCI-H838 = system: NCI-H838
Summary of the method: as §1

LK-2 = system: LK-2
Summary of the method: as §1

CC(C)Oc1cc(Nc2nc(N[C@@H](C)c3ccc(F)cn3)ncc2Cl)n[nH]1 [AZ23] + Cc1nc(NC(=O)N2CCC[C@H]2C(N)=O)sc1-c1ccnc(C(C)(C)C(F)(F)F)c1 [Alpelisib] (partner 2 µM)
relative viability (LCLC-103H; first compound 0.01 µM): 0.953 | relative viability (LCLC-103H; first compound 0.03162 µM): 1.01 | relative viability (LCLC-103H; first compound 0.3162 µM): 0.996 | relative viability (NCI-H1944; first compound 0.01 µM): 0.811 | relative viability (NCI-H1944; first compound 0.03162 µM): 0.868 | relative viability (NCI-H1944; first compound 0.3162 µM): 0.883 | relative viability (LU99A; first compound 0.01 µM): 0.49 | relative viability (LU99A; first compound 0.03162 µM): 0.651 | relative viability (LU99A; first compound 0.3162 µM): 0.555 | relative viability (H3255; first compound 0.01 µM): 0.637 | relative viability (H3255; first compound 0.03162 µM): 0.868 | relative viability (H3255; first compound 0.3162 µM): 0.863 | relative viability (SW 1573; first compound 0.01 µM): 0.852 | relative viability (SW 1573; first compound 0.03162 µM): 0.845 | relative viability (SW 1573; first compound 0.3162 µM): 0.712 | relative viability (RERF-LC-KJ; first compound 0.01 µM): 0.714 | relative viability (RERF-LC-KJ; first compound 0.03162 µM): 0.925 | relative viability (RERF-LC-KJ; first compound 0.3162 µM): 0.845 | relative viability (NCI-H23; first compound 0.03162 µM): 0.749 | relative viability (NCI-H23; first compound 0.3162 µM): 0.573 | relative viability (PC-3 [JPC-3]; first compound 0.01 µM): 1.14 | relative viability (PC-3 [JPC-3]; first compound 0.03162 µM): 1.06 | relative viability (PC-3 [JPC-3]; first compound 0.3162 µM): 0.962 | relative viability (NCI-H1793; first compound 0.01 µM): 0.83 | relative viability (NCI-H1793; first compound 0.03162 µM): 0.787 | relative viability (NCI-H1793; first compound 0.3162 µM): 0.643 | relative viability (A-427; first compound 0.01 µM): 1.13 | relative viability (A-427; first compound 0.03162 µM): 1.1 | relative viability (A-427; first compound 0.3162 µM): 1.08 | relative viability (NCI-H1563; first compound 0.01 µM): 0.895 | relative viability (NCI-H1563; first compound 0.03162 µM): 0.961 | relative viability (NCI-H1563; first compound 0.3162 µM): 0.899 | relative viability (NCI-H460; first compound 0.01 µM): 0.429 | relative viability (NCI-H460; first compound 0.03162 µM): 0.598 | relative viability (NCI-H460; first compound 0.3162 µM): 0.48 | relative viability (NCI-H2347; first compound 0.01 µM): 1.06 | relative viability (NCI-H2347; first compound 0.03162 µM): 1.09 | relative viability (NCI-H2347; first compound 0.3162 µM): 1.08 | relative viability (PC-14; first compound 0.01 µM): 0.897 | relative viability (PC-14; first compound 0.03162 µM): 1.13 | relative viability (PC-14; first compound 0.3162 µM): 1.06 | relative viability (LCLC-97TM1; first compound 0.01 µM): 0.228 | relative viability (LCLC-97TM1; first compound 0.03162 µM): 0.246 | relative viability (LCLC-97TM1; first compound 0.3162 µM): 0.245 | relative viability (COR-L23; first compound 0.01 µM): 0.815 | relative viability (COR-L23; first compound 0.03162 µM): 0.921 | relative viability (COR-L23; first compound 0.3162 µM): 0.821 | relative viability (201T; first compound 0.01 µM): 1.03 | relative viability (201T; first compound 0.03162 µM): 1.09 | relative viability (201T; first compound 0.3162 µM): 1.02 | relative viability (NCI-H1651; first compound 0.01 µM): 0.773 | relative viability (NCI-H1651; first compound 0.03162 µM): 1.05 | relative viability (NCI-H1651; first compound 0.3162 µM): 1.16 | relative viability (NCI-H650; first compound 0.01 µM): 1.03 | relative viability (NCI-H650; first compound 0.03162 µM): 1.19 | relative viability (NCI-H650; first compound 0.3162 µM): 1.16 | relative viability (NCI-H727; first compound 0.01 µM): 0.634 | relative viability (NCI-H727; first compound 0.03162 µM): 0.628 | relative viability (NCI-H727; first compound 0.3162 µM): 0.601 | relative viability (NCI-H838; first compound 0.01 µM): 0.968 | relative viability (NCI-H838; first compound 0.03162 µM): 1.25 | relative viability (NCI-H838; first compound 0.3162 µM): 0.998 | relative viability (LK-2; first compound 0.03162 µM): 1.26 | relative viability (LK-2; first compound 0.3162 µM): 1.17
